From patent US6737383B1, “Herbicidal oxadiazolidines” (priority 1999, dated 2004)

Assays:
wild oat = test: Test B pre/postemergence wild oat; assay type: in vivo, Avena fatua
Summary of the method: (§1)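 Test chemicals in a non-phytotoxic solvent mixture with surfactant were sprayed preemergence onto planted seeds and postemergence onto plants 2 to 18 cm tall (1- to 4-leaf stage). After twelve to sixteen days in a greenhouse, injury was visually rated against untreated controls from 0 (no effect) to 10 (complete control).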

wheat = test: Test B pre/postemergence wheat; assay type: in vivo, Triticum aestivum
Summary of the method: as §1

crabgrass = test: Test B pre/postemergence crabgrass; assay type: in vivo, Digitaria sanguinalis
Excerpt: (§2) Seeds of bedstraw (Galium aparine), blackgrass (Alopecurus myosuroides), surinam grass (Brachiaria decumbens), cocklebur (Xanthium strumarium), corn (Zea mays), crabgrass (Digitaria sanguinalis), giant foxtail (Setaria faberii), morningglory (Ipomoea hederacea), pigweed (Amaranthus retroflexus), rape (Brassica napus), soybean (Glycine max), sugar beet (Beta vulgaris), velvetleaf (Abutilon theophrasti), wheat (Triticum aestivum), wild oat (Avena fatua) and purple nutsedge (Cyperus rotundus) tubers were planted and treated preemnergence with test chemicals formulated in a non-phytotoxic solvent mixture which included a surfactant.
(§3) At the same time, these crop and weed species were also treated with postemergence applications of test chemicals formulated in the same manner. Plants ranged in height from 2 to 18 cm (1- to 4-leaf stage) for postemergence treatments. Plant species in the flood test consisted of rice (Oryza sativa), smallflower flatsedge (Cyperus difformis), duck salad (Heteranthera limosa) and bamyardgrass (Echinochloa crus-galli) grown to the 2-leaf stage for testing. Treated plants and controls were maintained in a greenhouse for twelve to sixteen days, after which all species were compared to controls and visually evaluated. Plant response ratings, summarized in Table B, are based on a scale of 0 to 10 where 0 is no effect and 10 is complete control. A dash (−) response means no test result.

corn = test: Test B pre/postemergence corn; assay type: in vivo, Zea mays
Excerpt: as §2, §3

giant foxtail = test: Test B pre/postemergence giant foxtail; assay type: in vivo, Setaria faberii
Summary of the method: as §1

bedstraw = test: Test B pre/postemergence bedstraw; assay type: in vivo, Galium aparine
Summary of the method: as §1

sugar beet = test: Test B pre/postemergence sugar beet; assay type: in vivo, Beta vulgaris
Excerpt: as §2, §3

pigweed = test: Test B pre/postemergence pigweed; assay type: in vivo, Amaranthus retroflexus
Excerpt: as §2, §3

velvetleaf = test: Test B pre/postemergence velvetleaf; assay type: in vivo, Abutilon theophrasti
Excerpt: as §2, §3

cocklebur = test: Test B pre/postemergence cocklebur; assay type: in vivo, Xanthium strumarium
Excerpt: as §2, §3

purple nutsedge = test: Test B pre/postemergence purple nutsedge; assay type: in vivo, Cyperus rotundus
Excerpt: as §2, §3

surinam grass = test: Test B pre/postemergence surinam grass; assay type: in vivo, Brachiaria decumbens
Excerpt: as §2, §3

soybean = test: Test B pre/postemergence soybean; assay type: in vivo, Glycine max
Excerpt: as §2, §3

rape = test: Test B pre/postemergence rape; assay type: in vivo, Brassica napus
Summary of the method: as §1

morningglory = test: Test B pre/postemergence morningglory; assay type: in vivo, Ipomoea hederacea
Summary of the method: as §1

blackgrass = test: Test B pre/postemergence blackgrass; assay type: in vivo, Alopecurus myosuroides
Excerpt: as §2, §3

[1] = Postemergence, Rate 62 g/ha, scale 0 to 10, 0 is no effect, 10 is complete control
[2] = Preemergence, Rate 125 g/ha, scale of 0 to 10 where 0 is no effect and 10 is complete control
[3] = Preemergence, Rate 250 g/ha, scale 0 (no effect) to 10 (complete control)
[4] = Rate 62 g/ha, Preemergence, scale 0 to 10
[5] = Rate 250 g/ha, Postemergence, scale 0 to 10, 0 is no effect, 10 is complete control
[6] = Rate 500 g/ha, Postemergence, scale 0 to 10, 0 is no effect, 10 is complete control
[7] = Rate 500 g/ha, Preemergence, scale 0 to 10 (0 no effect, 10 complete control)
[8] = Postemergence, Rate 125 g/ha, scale of 0 to 10 where 0 is no effect and 10 is complete control

SMILES: CC(C)N(C(=O)n1oc(=O)n(C(C)C2=NOCC2)c1=O)c1ccc(Cl)cc1 (racemic) [Compound 759]
- Plant response rating, Wild oats (wild oat; [1]): 0
- Plant response rating, Wild oats (wild oat; [2]): 4
- Wild oats plant response rating (wild oat; [3]): 5
- Wild oats plant response rating (wild oat; [4]): 0
- Wild oats plant response rating (wild oat; [5]): 2
- Wild oats plant response rating (wild oat; [6]): 3
- Wild oats plant response rating (wild oat; [7]): 8
- Plant response rating, Wheat (wheat; [1]): 0
- Plant response rating, Wheat (wheat; [2]): 2
- Wheat plant response rating (wheat; [3]): 3
- Wheat plant response rating (wheat; [4]): 0
- Wheat plant response rating (wheat; [5]): 0
- Wheat plant response rating (wheat; [6]): 0
- Wheat plant response rating (wheat; [7]): 8
- Plant response rating, Crabgrass (crabgrass; [1]): 2
- Crabgrass plant response rating (crabgrass; [8]): 4
- Plant response rating, Crabgrass (crabgrass; [2]): 7
- Crabgrass plant response rating (crabgrass; [3]): 8
- Crabgrass plant response rating (crabgrass; [4]): 7
- Crabgrass plant response rating (crabgrass; [5]): 8
- Crabgrass plant response rating (crabgrass; [6]): 8
- Crabgrass plant response rating (crabgrass; [7]): 9
- Plant response rating, Corn (corn; [1]): 0
- Corn plant response rating (corn; [8]): 0
- Plant response rating, Corn (corn; [2]): 0
- Corn plant response rating (corn; [3]): 0
- Corn plant response rating (corn; [4]): 0
- Corn plant response rating (corn; [5]): 0
- Corn plant response rating (corn; [6]): 0
- Corn plant response rating (corn; [7]): 0
- Plant response rating, Giant foxtail (giant foxtail; [1]): 3
- Giant foxtail plant response rating (giant foxtail; [8]): 5
- Plant response rating, Giant foxtail (giant foxtail; [2]): 9
- Giant foxtail plant response rating (giant foxtail; [3]): 10
- Giant foxtail plant response rating (giant foxtail; [4]): 9
- Giant foxtail plant response rating (giant foxtail; [5]): 8
- Giant foxtail plant response rating (giant foxtail; [6]): 8
- Giant foxtail plant response rating (giant foxtail; [7]): 10
- Plant response rating, Bedstraw (bedstraw; [1]): 0
- Plant response rating, Bedstraw (bedstraw; [2]): 0
- Bedstraw plant response rating (bedstraw; [3]): 0
- Bedstraw plant response rating (bedstraw; [4]): 0
- Bedstraw plant response rating (bedstraw; [7]): 0
- Plant response rating, Sugarbeets (sugar beet; [1]): 0
- Plant response rating, Sugarbeets (sugar beet; [2]): 0
- Sugarbeets plant response rating (sugar beet; [3]): 4
- Sugarbeets plant response rating (sugar beet; [4]): 0
- Sugarbeets plant response rating (sugar beet; [5]): 0
- Sugarbeets plant response rating (sugar beet; [6]): 0
- Sugarbeets plant response rating (sugar beet; [7]): 5
- Plant response rating, Redroot pigweed (pigweed; [1]): 0
- Redroot pigweed plant response rating (pigweed; [8]): 0
- Plant response rating, Redroot pigweed (pigweed; [2]): 2
- Redroot pigweed plant response rating (pigweed; [3]): 3
- Redroot pigweed plant response rating (pigweed; [4]): 0
- Redroot pigweed plant response rating (pigweed; [5]): 0
- Redroot pigweed plant response rating (pigweed; [6]): 4
- Redroot pigweed plant response rating (pigweed; [7]): 4
- Plant response rating, Velvetleaf (velvetleaf; [1]): 2
- Plant response rating, Velvetleaf (velvetleaf; [2]): 0
- Velvetleaf plant response rating (velvetleaf; [3]): 0
- Velvetleaf plant response rating (velvetleaf; [4]): 0
- Velvetleaf plant response rating (velvetleaf; [5]): 6
- Velvetleaf plant response rating (velvetleaf; [6]): 6
- Velvetleaf plant response rating (velvetleaf; [7]): 0
- Plant response rating, Cocklebur (cocklebur; [1]): 0
- Cocklebur plant response rating (cocklebur; [8]): 0
- Plant response rating, Cocklebur (cocklebur; [2]): 0
- Cocklebur plant response rating (cocklebur; [3]): 0
- Cocklebur plant response rating (cocklebur; [4]): 0
- Cocklebur plant response rating (cocklebur; [5]): 1
- Cocklebur plant response rating (cocklebur; [6]): 2
- Cocklebur plant response rating (cocklebur; [7]): 0
- Plant response rating, Nutsedge (purple nutsedge; [1]): 0
- Nutsedge plant response rating (purple nutsedge; [8]): 0
- Plant response rating, Nutsedge (purple nutsedge; [2]): 0
- Nutsedge plant response rating (purple nutsedge; [3]): 0
- Nutsedge plant response rating (purple nutsedge; [4]): 0
- Nutsedge plant response rating (purple nutsedge; [5]): 0
- Nutsedge plant response rating (purple nutsedge; [6]): 0
- Nutsedge plant response rating (purple nutsedge; [7]): 0
- Plant response rating, B. signalgrass (surinam grass; [1]): 0
- B. signalgrass plant response rating (surinam grass; [8]): 3
- B. signalgrass plant response rating (surinam grass; Preemergence, Rate 62 g/ha, scale of 0 to 10 where 0 is no effect and 10 is complete control): 3
- Plant response rating, B. signalgrass (surinam grass; [2]): 3
- B. signalgrass plant response rating (surinam grass; [3]): 8
- B. signalgrass plant response rating (surinam grass; [5]): 6
- B. signalgrass plant response rating (surinam grass; [6]): 7
- B. signalgrass plant response rating (surinam grass; [7]): 8
- Plant response rating, Soybean (soybean; [1]): 3
- Plant response rating, Soybean (soybean; [2]): 0
- Soybean plant response rating (soybean; [3]): 0
- Soybean plant response rating (soybean; [4]): 0
- Soybean plant response rating (soybean; [5]): 3
- Soybean plant response rating (soybean; [6]): 3
- Soybean plant response rating (soybean; [7]): 0
- Plant response rating, Rape (rape; [1]): 0
- Rape plant response rating (rape; [8]): 0
- Plant response rating, Rape (rape; [2]): 0
- Rape plant response rating (rape; [3]): 0
- Rape plant response rating (rape; [4]): 0
- Rape plant response rating (rape; [5]): 0
- Rape plant response rating (rape; [6]): 0
- Rape plant response rating (rape; [7]): 4
- Plant response rating, Morningglory (morningglory; [1]): 3
- Morningglory plant response rating (morningglory; [8]): 3
- Plant response rating, Morningglory (morningglory; [2]): 0
- Morningglory plant response rating (morningglory; [3]): 0
- Morningglory plant response rating (morningglory; [4]): 0
- Morningglory plant response rating (morningglory; [5]): 3
- Morningglory plant response rating (morningglory; [6]): 4
- Morningglory plant response rating (morningglory; [7]): 0
- Plant response rating, Blackgrass (blackgrass; [1]): 4
- Blackgrass plant response rating (blackgrass; [8]): 5
- Plant response rating, Blackgrass (blackgrass; [2]): 5
- Blackgrass plant response rating (blackgrass; [3]): 5
- Blackgrass plant response rating (blackgrass; [4]): 4
- Blackgrass plant response rating (blackgrass; [5]): 7
- Blackgrass plant response rating (blackgrass; [6]): 8
- Blackgrass plant response rating (blackgrass; [7]): 8
